Test results reported in paper PMC7600788, “Sequence Permutation Generates Peptides with Different Antimicrobial and Antibiofilm Activities” (Pharmaceuticals, 2020).
No end group written: not given here.

Experiments:
[1] = test system: A. baumannii B28-16; assay type: cell-based, Acinetobacter baumannii; settings: B28-16
Procedure: (§1) The antimicrobial activity spectrum of the WW peptide series was performed on a panel of Gram-positive and -negative bacteria using the standard broth micro-dilution method with minor modifications as described. […] There was a small change in the case of Pseudomonas aeruginosa and Acinetobacter baumannii up to two-fold. Four-fold changes were found for Staphylococcus aureus, Staphylococcus epidermidis, Escherichia coli, and Bacillus subtilis. However, we observed over eight-fold MIC changes for Klebsiella pneumoniae and vancomycin-resistant enterococcus (VRE). […] We also observed more than eight-fold changes in minimal bacterial killing concentrations.
(§2) The antibacterial activity of peptides was evaluated using a standard broth microdilution protocol with minor modifications as previously described. In brief, logarithmic phase bacterial cultures (i.e., optical density at 600 nm ≈ 0.5) were diluted to OD600~0.001 and partitioned into a 96-well polystyrene microplate at 90 μL per well. After treatment with 10 μL of peptide solutions two-fold diluted to various concentrations, microplates were incubated at 37 °C overnight and read on a ChroMate 4300 Microplate Reader at 630 nm (GMI, Ramsey, MN). […] Minimal bactericidal concentration (MBC) was determined by plating the clear wells at MIC or above. The peptide concentration that caused no bacterial growth on the petri dish is MBC.

[2] = test system: S. aureus USA300 LAC; assay: Disruption of 24 h established biofilms (XTT); assay type: cell-based, Staphylococcus aureus; settings: 12.5 µM, highest concentration tested, 24 h treatment
Procedure: We also compared the effects of the peptides on established biofilms (24 h). […] When cells are alive (in the absence of peptide), the cell-permeant calcein-AM dye could enter the cells and gave green color as a consequence of the removal of acetoxymethyl (AM) esters by intracellular esterase (Figure 7A). When the cells were dead due to membrane damage by the peptide, the red dye ethidium homodimer (non-membrane permeable) could enter the cell and become red by binding to nucleic acids (Figure 7B).
The antibiofilm activity of the peptide against 24 h established biofilms was evaluated as previously described. In short, S. aureus USA300 LAC (10^5 CFU/mL) was made from exponential phase bacteria in TSB media and 180 μL were distributed to each well of the microtiter plate (Corning Costar Cat No. 3595, Amsterdam, The Netherlands). The plates were incubated at 37 °C for 24 h to form a biofilm. Culture treated with water served as a positive control while media without bacterial inoculation served as the negative control. Media were then pipetted out and the attached biofilms were washed with 1× PBS to remove the planktonic bacteria. Each well of the plate was then filled with 20 μL of 10× peptide solution and 180 μL of fresh TSB media and the plates were further incubated at 37 °C for 24 h. Media were then pipetted out and the wells were washed with 1× PBS to remove planktonic cells. The live cells in biofilms were estimated by XTT assay as mentioned above.

[3] = test system: monkey kidney Vero E6 cells; assay type: cell-based
Procedure: Peptides were assayed for potential in vitro toxicity against human keratinocytes (HaCaT) and THP-1 cells as previously described. THP-1 monocytes were differentiated into macrophages by adding 30 ng/mL of phorbol 12-myristate 13-acetate (PMA; Sigma-Aldrich) to RPMI 1640 supplemented with 10% fetal calf serum culture (FCS) medium for 16 h. Briefly, cells were seeded at a density of 3 × 10^4 per well in a tissue culture 96-well plate in DMEM/RPMI supplemented with 10% fetal bovine serum (FBS), and incubated at 37 °C in a 5% CO2 atmosphere for 24 h. African green monkey kidney Vero E6 cells were cultivated in EMEM in the same manner. Before antimicrobial treatment, wells were replaced with serum free media and treated with peptides at different concentrations for one hour. After incubation, the cells were washed and incubated with 100 μL of DMEM media containing 20 μL of 3-(4,5-dimethylthiazol-2-yl)-5-(3-carboxymethoxyphenyl)-2-(4-sulfophenyl)-2H-tetrazolium (MTS) reagent for two hours at 37 °C. […] Absorbance readings at 492 nm were taken using a ChroMate microplate reader (GMI, Ramsey, MN, USA).

[4] = test system: E. coli K12; assay type: cell-based, Escherichia coli; settings: K12
Procedure: as §1, §2

[5] = test system: K. pneumonia ATCC 13883; settings: cited from earlier work
Description: Table 2 Antibacterial activities of the WW peptides against various bacteria. | column: Minimal Inhibitory Concentration (MIC, μM) / KP ^a

[6] = test system: E. coli ATCC 25922; assay type: cell-based, Escherichia coli; settings: ATCC 25922
Procedure: To gain additional insight, we also compared the effects of physiological saline and human serum on the antibacterial activities of WW291-WW298 using both E. coli and S. aureus (Table 3). In our assays, salts and serum were present during the entire course of the experiment. […] Thus, WW295 and WW298 stand out in terms of activity robustness (bold in Table 3).
as §2

[7] = test system: E. coli ATCC 25922; assay: Propidium iodide membrane permeation assay; assay type: cell-based, Escherichia coli; settings: peptide 3.1 µM, read every 5 min for 2 h
Procedure: Although not general, cationic antimicrobial peptides frequently target bacterial membranes. A fluorescence-based assay was performed for the determination the membrane active nature of peptides. A rapid increase in the fluorescence was detected as a consequence of peptide treatment at 3.1 µM, indicating membrane damage (Figure 3).
The experiment was performed as previously described with minor modifications. Serially diluted 10× peptides (10 μL each well) were created in 96-well microtiter plates. Propidium iodide (2 μL) at a fixed concentration of 20 μM was added to each well followed by 88 μL of the S. aureus USA300 or E. coli ATCC 25922 culture (a final OD600 ~0.1 in PBS). The plate was incubated at 37 °C with continuous shaking at 100 rpm in a FLUOstar Omega (BMG LABTECH Inc, Cary, NC, USA) microplate reader. The fluorescence from the plate was read every 5 min for a total duration of 2 h with excitation and emission wavelengths of 584 and 620 nm, respectively. Data were analyzed using the MARS data analysis software provided by the manufacturer and representative plots were made using the GraphPad Prism software (version: 7.0).

## RKIWWWWL [WW295]
[1]
  Minimal Inhibitory Concentration (MIC), AB: 6.25 to 12.5 µM
[2]
  disruption of established biofilms (24 h): did not disrupt MRSA biofilms significantly
[3]
  Vero Cells, concentration that caused 50% cell death (LC50): >100 µM
[4]
  Minimal Inhibitory Concentration (MIC), EC: 6.2 µM
[5]
  Minimal Inhibitory Concentration (MIC), KP: 3.1 to 6.2 µM
[6]
  MIC, +150 mM NaCl: 6.2 µM
  MIC, +10% Human Serum: 12.5 µM
  MIC, TSB: 3.1 µM
[7]
  propidium iodide fluorescence buildup (membrane permeation): steady fluorescence buildup
